Laboratory results reported in patent publication US8263617B2, “Chromen-2-one derivatives and their use as monoamine neurotransmitter re-uptake inhibitors” (Neurosearch A/S, priority 2006, dated 2012).
pIC50: −log10 of the molar value. Where a name gives a salt, the structure may show the parent alone.

Columns and labels:
Format in all cases: biochemical
[1] = biological target: T1, reuptake of dopamine (DA) in synaptosomes (Rattus norvegicus, UniProt P23977); assay: Inhibition of DA reuptake in synaptosomes; conditions: 3H-DA, read-out: DA-uptake IC50
T1 construct: in synaptosomes as described in WO 97/16451; from tissue
T1 sequence (P23977 whole entry): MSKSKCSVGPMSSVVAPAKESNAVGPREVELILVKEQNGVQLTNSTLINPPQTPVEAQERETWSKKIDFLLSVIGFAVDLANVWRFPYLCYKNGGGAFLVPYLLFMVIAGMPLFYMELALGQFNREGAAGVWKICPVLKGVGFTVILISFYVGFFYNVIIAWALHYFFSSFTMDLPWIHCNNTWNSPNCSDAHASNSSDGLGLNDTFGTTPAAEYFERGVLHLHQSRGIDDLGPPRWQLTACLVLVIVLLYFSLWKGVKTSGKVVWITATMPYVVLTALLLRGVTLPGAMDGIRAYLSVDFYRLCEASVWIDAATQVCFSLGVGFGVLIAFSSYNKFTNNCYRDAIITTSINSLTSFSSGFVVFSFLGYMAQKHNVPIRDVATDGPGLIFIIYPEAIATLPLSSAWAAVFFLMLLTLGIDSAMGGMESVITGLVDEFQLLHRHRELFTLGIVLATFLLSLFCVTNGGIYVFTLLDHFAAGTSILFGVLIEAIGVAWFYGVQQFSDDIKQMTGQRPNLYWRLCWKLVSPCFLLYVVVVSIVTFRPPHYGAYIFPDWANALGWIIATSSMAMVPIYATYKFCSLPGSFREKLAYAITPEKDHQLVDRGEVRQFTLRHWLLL
Procedure: (§1) A number of compounds were tested for their ability to inhibit the reuptake of the monoamine neurotransmitters dopamine (DA), noradrenaline (NA) and serotonine (5-HT) in synaptosomes as described in WO 97/16451.
(§2) The test values are given as IC50 (the concentration (μM) of the test substance which inhibits the specific binding of ^3H-DA, ^3H-NA, or ^3H-5-HT by 50%).

[2] = biological target: T2, reuptake of serotonine (5-HT) in synaptosomes (Rattus norvegicus, UniProt P31652); assay: Inhibition of 5-HT reuptake in synaptosomes; conditions: 3H-5-HT, read-out: 5-HT-uptake IC50
T2 construct: in synaptosomes as described in WO 97/16451; from tissue
T2 sequence (P31652 whole entry): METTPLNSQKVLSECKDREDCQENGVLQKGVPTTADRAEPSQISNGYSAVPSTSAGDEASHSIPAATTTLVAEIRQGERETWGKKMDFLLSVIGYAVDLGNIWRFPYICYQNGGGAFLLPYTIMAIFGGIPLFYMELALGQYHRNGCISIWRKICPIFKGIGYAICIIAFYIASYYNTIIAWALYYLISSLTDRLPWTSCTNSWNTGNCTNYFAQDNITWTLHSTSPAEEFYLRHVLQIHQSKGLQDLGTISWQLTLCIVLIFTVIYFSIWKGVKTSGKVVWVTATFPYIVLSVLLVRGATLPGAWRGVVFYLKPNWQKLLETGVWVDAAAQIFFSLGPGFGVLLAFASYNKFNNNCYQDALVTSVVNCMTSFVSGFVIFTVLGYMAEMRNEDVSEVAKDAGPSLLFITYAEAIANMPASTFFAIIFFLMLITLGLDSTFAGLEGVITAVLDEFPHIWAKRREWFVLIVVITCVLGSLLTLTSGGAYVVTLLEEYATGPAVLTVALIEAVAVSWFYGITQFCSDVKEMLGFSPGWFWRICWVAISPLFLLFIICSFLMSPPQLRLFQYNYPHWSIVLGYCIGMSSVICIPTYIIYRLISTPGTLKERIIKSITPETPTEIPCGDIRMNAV
Procedure: as §1, §2

[3] = biological target: T3, reuptake of noradrenaline (NA) in synaptosomes (Rattus norvegicus, UniProt Q63380); assay: Inhibition of NA reuptake in synaptosomes; conditions: 3H-NA, read-out: NA-uptake IC50
T3 construct: in synaptosomes as described in WO 97/16451; from tissue
T3 sequence (Q63380 1-617): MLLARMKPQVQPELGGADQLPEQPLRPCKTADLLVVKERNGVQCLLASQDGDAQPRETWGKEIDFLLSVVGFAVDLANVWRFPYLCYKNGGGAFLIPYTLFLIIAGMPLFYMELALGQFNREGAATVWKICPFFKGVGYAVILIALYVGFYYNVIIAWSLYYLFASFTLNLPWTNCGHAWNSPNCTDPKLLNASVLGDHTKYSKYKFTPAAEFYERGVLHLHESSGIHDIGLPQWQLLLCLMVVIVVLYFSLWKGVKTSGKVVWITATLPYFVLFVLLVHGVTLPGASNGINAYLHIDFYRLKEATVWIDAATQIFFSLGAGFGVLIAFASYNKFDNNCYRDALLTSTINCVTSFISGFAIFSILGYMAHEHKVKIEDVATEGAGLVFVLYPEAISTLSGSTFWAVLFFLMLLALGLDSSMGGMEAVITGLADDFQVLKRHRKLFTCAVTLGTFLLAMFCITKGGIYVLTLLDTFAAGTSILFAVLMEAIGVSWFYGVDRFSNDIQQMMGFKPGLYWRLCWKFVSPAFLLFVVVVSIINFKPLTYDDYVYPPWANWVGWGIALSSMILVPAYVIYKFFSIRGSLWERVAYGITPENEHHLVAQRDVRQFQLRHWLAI
Procedure: as §1, §2

Row | Structure (SMILES) | pIC50 [1] | pIC50 [2] | pIC50 [3]
1 | O=c1oc2cc(OC3CC4CCC(C3)N4)ccc2cc1-c1ccoc1 [2nd Compound of Method A, exo-7-[(1S,3S,5R)-(8-Aza-bicyclo[3.2.1]oct-3-yl)oxy]-3-furan-3-yl-chromen-2-one hydrochloric acid salt] | 8.00 | 8.00 | 9.32
2 | O=c1oc2cc(OC3CC4CCC(C3)N4)ccc2cc1-c1ccco1 [1st Compound of Method A, exo-7-[(1S,3S,5R)-(8-Aza-bicyclo[3.2.1]oct-3-yl)oxy]-3-furan-2-yl-chromen-2-one hydrochloric acid salt] | 7.47 | 8.11 | 8.37
3 | O=c1oc2cc(OC3CC4CCC(C3)N4)ccc2cc1-c1cc2ccccc2o1 [3rd Compound of Method A, exo-7-[(1S,3S,5R)-(8-Aza-bicyclo[3.2.1]oct-3-yl)oxy]-3-benzofuran-2-yl-chromen-2-one hydrochloric acid salt] | 6.15 | 8.04 | 6.08
